Test results: patent US6458978B1, “Fluorous phosphines and process for their preparation” (Atofina Vlissingen B.V., priority 1998, dated 2002)
Marks after values point to notes of the source that are not given here.

Assays:
[1] = Rhodium catalyzed hydrogenation of 1-octene under single phase fluorous conditions with catalyst recycling; details: for TOF50% / TON (cumulative) / conv.: p(H2) = 1 bar
Procedure: (Table 5). In this respect compounds H{1,6} and H{1,8} are true fluorous equivalents of the classical Wilkinson's hydrogenation catalyst (PPh3)3RhCl. The hydrogenation products were readily isolated from the catalyst layer by cooling of the reaction mixture to 0° C. followed by phase separation of the resulting biphasic system. In this way hydrogenation of 1-octene afforded n-octane in >95% yield (GC, GC-MS). Less than 4.3% internal olefins resulting from isomerization were present. In case of H{1,8} it was possible to recycle the fluorous catalyst layer multiple times allowing high turnover numbers and high conversions per cycle (Table 5 and FIG. 5).
20. Rhodium Catalyzed Hydrogenation Reactions
The catalytic experiments were carried out in a 30 mL Schienk flask, under dihydrogen atmosphere (1 bar). The catalyst was either dissolved in a hydrogen saturated toluene or perfluoro solvent and the mixture was stirred with a magnetic stirring bar (900 rpm). The olefinic substrate was added after initial dihydrogen uptake had ceased. The dihydrogen uptake was monitored using two mineral oil filled gas burettes. During the hydrogenation reactions one burette was opened to the reaction vessel while the other was recharged with dihydrogen.
(§1) Only catalysts prepared through method 1 were used. Catalytic reactions were carried out under single phase fluorous conditions in c-CF3C6F11 (2 mL) at 80° C. After >90% conversion (monitored by the H2 uptake) the homogeneous reaction mixture was cooled to 0° C. and the upper organic layer was siphoned of. In between cycles the fluorous layer was kept under H2 atmosphere. By warming up to 80° C. and addition of a fresh portion of 1-octene (12.74 mmol) a new cycle was started. The organic phases resulting from the first cycle were analyzed by GC and ICP-AAS.

[2] = Hydrogenation of 1-octene under single phase conditions in α,α,α-trifluorotoluene; details: [Rh] 4.0 mM, [1-octene] 1.46 M; T = 80° C., p(H2) = 1 bar, α,α,α-trifluorotoluene
Procedure: To be able to directly compare the activities of fluorous derivatives H{1,6} and H{1,8} with non-fluorous [P(C6H4-4-SiMe3)3]3RhCl (H{0}) and the conventional Wilkinson catalyst (PPh3)3RhCl, homogeneous hydrogenation of 1-octene were carried out under single phase conditions in the hybrid solvent α,α,α-trifluorotoluene at atmospheric H2 pressures. Highest rates of hydrogen uptake (14.2 mol.L^−1.h^−1) were measured for 1c at relatively high rhodium and olefine concentrations (entry 2, Table 7). Under these conditions a zero-order dependence in [1-octene] was found up to ca 80% conversion resulting in a linear conversion versus time plot. In all other experiments ([Rh]=4.0-8.0 mM, [1-octene]0=1.46 M) rates of hydrogen uptake were lower (<11 mol.L^−1.h^−1) and conversion versus time plots corresponded to a rate law -d[1-octene]/dt=kobs.[1-octene] for >98% conversion allowing to evaluate catalyst activity in terms of the observed first order rate constant kobs. Since for these experiments the rates of dihydrogen uptake were well below the maximum value obtained in entry 2, diffusion limitation of H2 can be excluded. In addition to kobs, turn over frequencies (TOF in mol.mol^−1.h^−1) were derived from the tangent of a 4^thorder polynomal fit to conversion versus time plots at 25% conversion and serve as a measure of catalyst activity independent of any assumed kinetic relationship with substrate.
Catalytic reactions were carried out under single phase conditions in CF3C6H5 at 80° C. under 1 bar of hydrogen pressure. After >90% conversion (monitored by the H2 uptake) volatiles were distilled off and analyzed by GC. Activities (TOF) were determined for 25% conversion.

[3] = Leaching of rhodium and phosphorus into the organic product phase and partitioning of rhodium species (ICP-AAS); details: fluorous biphasic product mixture from hydrogenation of 1-octene
Excerpt: Rhodium leaching into the organic phase (as determined by ICP-AAS) was low. On average 0.12% of Rh per cycle was lost corresponding to a rhodium concentration of 3 ppm (by weight) in the product phase. Over 9 cycles only 1% of rhodium was lost despite of the phase separation method used. Leaching was higher for less fluorous pre-catalyst H{1,6}: 0.3% (6 ppm) of rhodium was present in the organic phase after phase separation.
The amount of leached rhodium allows to calculate the average partition coefficients (P) of the rhodium species present during phase separation (Table 6). […] Chem. Soc. 1999, 121, 2696-2704.). […] Chem. Int. Ed. Engl. 1997, 36, 1610-1612).
The retention of free uncoordinated fluorous phosphine can be used for recycling the intact catalyst system.
as §1

[4] = c-C6F11CF3/toluene at 27° C.; cited from earlier work
[5] = hydrogenation of 1-heptene in benzene; cited from earlier work
[6] = cycle 1, c-CF3C6F11, 80° C., [1-octene]/[Rh] = 559, [Rh]0 = 0.0060M
[7] = cycle 1, c-CF3C6F11, 80° C., [1-octene]/[Rh] = 365
[8] = cycle 2, c-CF3C6F11, 80° C., [1-octene]/[Rh] = 365
[9] = cycle 3, c-CF3C6F11, 80° C., [1-octene]/[Rh] = 365
[10] = cycle 4, c-CF3C6F11, 80° C., [1-octene]/[Rh] = 365
[11] = cycle 5, c-CF3C6F11, 80° C., [1-octene]/[Rh] = 365
[12] = cycle 6, c-CF3C6F11, 80° C., [1-octene]/[Rh] = 365
[13] = cycle 7, c-CF3C6F11, 80° C., [1-octene]/[Rh] = 365
[14] = cycle 8, c-CF3C6F11, 80° C., [1-octene]/[Rh] = 365
[15] = cycle 9, fresh c-CF3C6F11 added as compensation for losses of fluorous solvent, 80° C.

C[Si](C)(CCC(F)(F)C(F)(F)C(F)(F)C(F)(F)C(F)(F)C(F)(F)F)c1ccc([PH](c2ccc([Si](C)(C)CCC(F)(F)C(F)(F)C(F)(F)C(F)(F)C(F)(F)C(F)(F)F)cc2)(c2ccc([Si](C)(C)CCC(F)(F)C(F)(F)C(F)(F)C(F)(F)C(F)(F)C(F)(F)F)cc2)[Rh]([Cl])([PH](c2ccc([Si](C)(C)CCC(F)(F)C(F)(F)C(F)(F)C(F)(F)C(F)(F)C(F)(F)F)cc2)(c2ccc([Si](C)(C)CCC(F)(F)C(F)(F)C(F)(F)C(F)(F)C(F)(F)C(F)(F)F)cc2)c2ccc([Si](C)(C)CCC(F)(F)C(F)(F)C(F)(F)C(F)(F)C(F)(F)C(F)(F)F)cc2)[PH](c2ccc([Si](C)(C)CCC(F)(F)C(F)(F)C(F)(F)C(F)(F)C(F)(F)C(F)(F)F)cc2)(c2ccc([Si](C)(C)CCC(F)(F)C(F)(F)C(F)(F)C(F)(F)C(F)(F)C(F)(F)F)cc2)c2ccc([Si](C)(C)CCC(F)(F)C(F)(F)C(F)(F)C(F)(F)C(F)(F)C(F)(F)F)cc2)cc1 [H{1,6}, (D{1,6})3RhCl]
TOF50% [1, 6]: 298 h⁻¹
TON (cumulative) [1, 6]: 531
conv. ([1]; cycle 1, c-CF3C6F11, 80° C., containing 10 mol % of D{1,6}, [1-octene]/[Rh] = 559, [Rh]0 = 0.0060M): 95%
TOF(25%), turn over frequency at 25% conversion [2]: 1110 h⁻¹
TON (mole of olefin/mole of Rh) [2]: 363
conversion [2]: 99%
kobs (first order rate constant) [2]: 4.2(1) h^−1
Average partitioning coefficient P of rhodium species ([3]; T = 0° C.): 293^b
Average partitioning coefficient P of rhodium species ([3]; T = 25° C.): 76^b

FC(F)(F)C(F)(F)C(F)(F)C(F)(F)C(F)(F)C(F)(F)CCP(CCC(F)(F)C(F)(F)C(F)(F)C(F)(F)C(F)(F)C(F)(F)F)CCC(F)(F)C(F)(F)C(F)(F)C(F)(F)C(F)(F)C(F)(F)F [P [(CH2)2(CF2)nCF3)3]3 (n=7)]
Partition coefficient P [4]: 332

[Cl-].[Rh].c1ccc(P(c2ccccc2)c2ccccc2)cc1.c1ccc(P(c2ccccc2)c2ccccc2)cc1.c1ccc(P(c2ccccc2)c2ccccc2)cc1 [(PPh3)3RhCl]
TOF(25%), turn over frequency at 25% conversion [2]: 960 h⁻¹
TON (mole of olefin/mole of Rh) [2]: 358
conversion [2]: 98%
kobs (first order rate constant) [2]: 4.0(1) h^−1
TOF [5]: 150 to 600 h⁻¹

C[Si](C)(CCC(F)(F)C(F)(F)C(F)(F)C(F)(F)C(F)(F)C(F)(F)C(F)(F)C(F)(F)F)c1ccc(P(c2ccc([Si](C)(C)CCC(F)(F)C(F)(F)C(F)(F)C(F)(F)C(F)(F)C(F)(F)C(F)(F)C(F)(F)F)cc2)c2ccc([Si](C)(C)CCC(F)(F)C(F)(F)C(F)(F)C(F)(F)C(F)(F)C(F)(F)C(F)(F)C(F)(F)F)cc2)cc1.C[Si](C)(CCC(F)(F)C(F)(F)C(F)(F)C(F)(F)C(F)(F)C(F)(F)C(F)(F)C(F)(F)F)c1ccc(P(c2ccc([Si](C)(C)CCC(F)(F)C(F)(F)C(F)(F)C(F)(F)C(F)(F)C(F)(F)C(F)(F)C(F)(F)F)cc2)c2ccc([Si](C)(C)CCC(F)(F)C(F)(F)C(F)(F)C(F)(F)C(F)(F)C(F)(F)C(F)(F)C(F)(F)F)cc2)cc1.C[Si](C)(CCC(F)(F)C(F)(F)C(F)(F)C(F)(F)C(F)(F)C(F)(F)C(F)(F)C(F)(F)F)c1ccc(P(c2ccc([Si](C)(C)CCC(F)(F)C(F)(F)C(F)(F)C(F)(F)C(F)(F)C(F)(F)C(F)(F)C(F)(F)F)cc2)c2ccc([Si](C)(C)CCC(F)(F)C(F)(F)C(F)(F)C(F)(F)C(F)(F)C(F)(F)C(F)(F)C(F)(F)F)cc2)cc1.[Cl][Rh] [H{1,8}, (D{1,8})3RhCl]
Drop of catalyst activity ([1]; 9th cycle, amount of c-C6F11CF3 restored to its initial volume): 19%
TOF50% [1, 7]: 177 h⁻¹
TON (cumulative) [1, 7]: 337
conv. ([1]; cycle 1, c-CF3C6F11, 80° C., [1-octene]/[Rh] = 365, [Rh] = 0.0087M in the initial cycle): 92%
TOF50% [1, 8]: 212 h⁻¹
TON (cumulative) [1, 8]: 688
conv. [1, 8]: 96%
TOF50% [1, 9]: 261 h⁻¹
TON (cumulative) [1, 9]: 1048
conv. [1, 9]: 99%
TOF50% [1, 10]: 277 h⁻¹
TON (cumulative) [1, 10]: 1383
conv. [1, 10]: 92%
TOF50% [1, 11]: 304 h⁻¹
TON (cumulative) [1, 11]: 1747
conv. [1, 11]: 99.8%
TOF50% [1, 12]: 397 h⁻¹
TON (cumulative) [1, 12]: 2100
conv. [1, 12]: 96.8%
TOF50% [1, 13]: 507 h⁻¹
TON (cumulative) [1, 13]: 2444
conv. [1, 13]: 94%
TOF50% [1, 14]: 617 h⁻¹
TON (cumulative) [1, 14]: 2808
conv. [1, 14]: 99.7%
TOF50% [1, 15]: 142 h⁻¹
TON (cumulative) [1, 15]: 3117
conv. [1, 15]: 85%
TOF(25%), turn over frequency at 25% conversion [2]: 870 h⁻¹
TON (mole of olefin/mole of Rh) [2]: 355
conversion [2]: 99%
kobs (first order rate constant) [2]: 3.2(1) h^−1
Average partitioning coefficient P of rhodium species ([3]; T = 0° C.): 1052^c

FC(F)(F)C(F)(F)C(F)(F)C(F)(F)C(F)(F)C(F)(F)CCP(CCC(F)(F)C(F)(F)C(F)(F)C(F)(F)C(F)(F)C(F)(F)F)CCC(F)(F)C(F)(F)C(F)(F)C(F)(F)C(F)(F)C(F)(F)F [P [(CH2)2(CF2)nCF3)3]3 (n=5)]
Partition coefficient P [4]: 82
